Measurements: PubChem BioAssay (NCI)
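Test compounds were applied to cells in 96-well plates for 48 hours at 5 doses. The concentration for 50% growth inhibition is given as GI50. TGI: total growth inhibition.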

Key:
Test in all cases: growth of human tumour cells (NCI), 48 h
UO-31 renal = test system: UO-31 renal
UACC-257 melanoma = test system: UACC-257 melanoma
NCI-H23 lung = test system: NCI-H23 lung
EKVX NSCLC = test system: EKVX NSCLC
NCI-H226 lung = test system: NCI-H226 lung
ACHN renal = test system: ACHN renal
OVCAR-4 ovarian = test system: OVCAR-4 ovarian
T-47D breast = test system: T-47D breast
SF-295 CNS = test system: SF-295 CNS
786-0 renal = test system: 786-0 renal
HOP-62 NSCLC = test system: HOP-62 NSCLC
MOLT-4 leukemia = test system: MOLT-4 leukemia
LOX IMVI melanoma = test system: LOX IMVI melanoma
SK-MEL-5 melanoma = test system: SK-MEL-5 melanoma
NCI/ADR-RES ovarian = test system: NCI/ADR-RES ovarian
HL-60(TB) leukemia = test system: HL-60(TB) leukemia
KM12 colon = test system: KM12 colon
MCF7 breast = test system: MCF7 breast
PC-3 prostate = test system: PC-3 prostate
MALME-3M melanoma = test system: MALME-3M melanoma
MDA-MB-231 breast = test system: MDA-MB-231 breast
K-562 leukemia = test system: K-562 leukemia
HOP-92 NSCLC = test system: HOP-92 NSCLC
SK-MEL-2 melanoma = test system: SK-MEL-2 melanoma
SR leukemia = test system: SR leukemia
HS 578T breast = test system: HS 578T breast
HCT-116 colon = test system: HCT-116 colon
UACC-62 melanoma = test system: UACC-62 melanoma
U251 CNS = test system: U251 CNS
NCI-H460 lung = test system: NCI-H460 lung
RXF 393 renal = test system: RXF 393 renal
OVCAR-5 ovarian = test system: OVCAR-5 ovarian
SK-MEL-28 melanoma = test system: SK-MEL-28 melanoma
HCT-15 colon = test system: HCT-15 colon
A549 NSCLC = test system: A549 NSCLC
MDA-MB-468 breast = test system: MDA-MB-468 breast
NCI-H522 lung = test system: NCI-H522 lung
HCC-2998 colon = test system: HCC-2998 colon
OVCAR-8 ovarian = test system: OVCAR-8 ovarian
SW-620 colon = test system: SW-620 colon
IGROV1 ovarian = test system: IGROV1 ovarian
DU-145 prostate = test system: DU-145 prostate
TK-10 renal = test system: TK-10 renal
A498 renal = test system: A498 renal
SF-539 CNS = test system: SF-539 CNS
CCRF-CEM leukemia = test system: CCRF-CEM leukemia
RPMI-8226 leukemia = test system: RPMI-8226 leukemia
SNB-19 CNS = test system: SNB-19 CNS
SN12C renal = test system: SN12C renal
CAKI-1 renal = test system: CAKI-1 renal
OVCAR-3 ovarian = test system: OVCAR-3 ovarian
MDA-MB-435 = test system: MDA-MB-435
COLO 205 colon = test system: COLO 205 colon
SK-OV-3 ovarian = test system: SK-OV-3 ovarian
BT-549 breast = test system: BT-549 breast
HT29 colon = test system: HT29 colon
SF-268 CNS = test system: SF-268 CNS
M14 melanoma = test system: M14 melanoma

`COc1ccc(C(=O)/C=C/c2ccccc2Br)cc1S(N)(=O)=O` was tested, and the GI50 (UO-31 renal) was 1.53 µM, the TGI (UO-31 renal) was 3.05 µM and the GI50 (UACC-257 melanoma) was 11.9 µM. For the same compound, the TGI (UACC-257 melanoma) was 24.5 µM, the GI50 (NCI-H23 lung) was 3.22 µM and the TGI (NCI-H23 lung) was 12.7 µM. The GI50 (EKVX NSCLC) was 9.86 µM, the TGI (EKVX NSCLC) was 21.8 µM and the GI50 (NCI-H226 lung) was 2.47 µM. For the same compound, the TGI (NCI-H226 lung) was 6.96 µM, the GI50 (ACHN renal) was 1.84 µM and the TGI (ACHN renal) was 3.56 µM. The GI50 (OVCAR-4 ovarian) was 3.25 µM, the TGI (OVCAR-4 ovarian) was 13.1 µM and the GI50 (T-47D breast) was 3.57 µM. It also gave a TGI (T-47D breast) of 15.8 µM, a GI50 (SF-295 CNS) of 4.13 µM and a TGI (SF-295 CNS) of 16.1 µM. The GI50 (786-0 renal) was 1.81 µM, the TGI (786-0 renal) was 3.66 µM and the GI50 (HOP-62 NSCLC) was 2.41 µM. For the same compound, the TGI (HOP-62 NSCLC) was 7.39 µM, the GI50 (MOLT-4 leukemia) was 1.93 µM and the TGI (MOLT-4 leukemia) was 5 µM. It also gave a GI50 (LOX IMVI melanoma) of 1.65 µM, a TGI (LOX IMVI melanoma) of 3.02 µM and a GI50 (SK-MEL-5 melanoma) of 7.78 µM. For the same compound, the TGI (SK-MEL-5 melanoma) was 20.5 µM, the GI50 (NCI/ADR-RES ovarian) was 2.28 µM and the TGI (NCI/ADR-RES ovarian) was 5.67 µM. For the same compound, the GI50 (HL-60(TB) leukemia) was 2.64 µM, the TGI (HL-60(TB) leukemia) was 17.2 µM and the GI50 (KM12 colon) was 1.87 µM. For the same compound, the TGI (KM12 colon) was 4.01 µM, the GI50 (MCF7 breast) was 2.89 µM and the TGI (MCF7 breast) was 11.3 µM. For the same compound, the GI50 (PC-3 prostate) was 4.28 µM, the TGI (PC-3 prostate) was 16.9 µM and the GI50 (MALME-3M melanoma) was 10.8 µM. For the same compound, the TGI (MALME-3M melanoma) was 22.7 µM, the GI50 (MDA-MB-231 breast) was 2.09 µM and the TGI (MDA-MB-231 breast) was 4.69 µM. The GI50 (K-562 leukemia) was 1.85 µM, the TGI (K-562 leukemia) was 5.09 µM and the GI50 (HOP-92 NSCLC) was 3.29 µM. The TGI (HOP-92 NSCLC) was 16 µM, the GI50 (SK-MEL-2 melanoma) was 14.4 µM and the TGI (SK-MEL-2 melanoma) was 28.1 µM. The GI50 (SR leukemia) was 1.48 µM, the TGI (SR leukemia) was 4.43 µM and the GI50 (HS 578T breast) was 8.91 µM. The TGI (HS 578T breast) was 72 µM, the GI50 (HCT-116 colon) was 1.52 µM and the TGI (HCT-116 colon) was 3.02 µM. It also gave a GI50 (UACC-62 melanoma) of 3.64 µM, a TGI (UACC-62 melanoma) of 15.3 µM and a GI50 (U251 CNS) of 1.49 µM. It also gave a TGI (U251 CNS) of 2.82 µM, a GI50 (NCI-H460 lung) of 1.94 µM and a TGI (NCI-H460 lung) of 4.58 µM. The GI50 (RXF 393 renal) was 1.91 µM, the TGI (RXF 393 renal) was 4.38 µM and the GI50 (OVCAR-5 ovarian) was 2.2 µM. For the same compound, the TGI (OVCAR-5 ovarian) was 5.99 µM, the GI50 (SK-MEL-28 melanoma) was 8.3 µM and the TGI (SK-MEL-28 melanoma) was 20.5 µM. For the same compound, the GI50 (HCT-15 colon) was 1.65 µM, the TGI (HCT-15 colon) was 3.45 µM and the GI50 (A549 NSCLC) was 2.67 µM. It also gave a TGI (A549 NSCLC) of 8.9 µM, a GI50 (MDA-MB-468 breast) of 2.56 µM and a TGI (MDA-MB-468 breast) of 13.2 µM. For the same compound, the GI50 (NCI-H522 lung) was 1.77 µM, the TGI (NCI-H522 lung) was 4.12 µM and the GI50 (HCC-2998 colon) was 2.9 µM. It also gave a TGI (HCC-2998 colon) of 12.4 µM, a GI50 (OVCAR-8 ovarian) of 2.62 µM and a TGI (OVCAR-8 ovarian) of 8.33 µM. The GI50 (SW-620 colon) was 1.79 µM, the TGI (SW-620 colon) was 4.04 µM and the GI50 (IGROV1 ovarian) was 2.76 µM. For the same compound, the TGI (IGROV1 ovarian) was 10 µM, the GI50 (DU-145 prostate) was 3.35 µM and the TGI (DU-145 prostate) was 11.4 µM. The GI50 (TK-10 renal) was 3.29 µM, the TGI (TK-10 renal) was 11.9 µM and the GI50 (A498 renal) was 11.4 µM. It also gave a TGI (A498 renal) of 24.1 µM, a GI50 (SF-539 CNS) of 1.74 µM and a TGI (SF-539 CNS) of 3.21 µM. The GI50 (CCRF-CEM leukemia) was 3.07 µM, the TGI (CCRF-CEM leukemia) was 11.1 µM and the GI50 (RPMI-8226 leukemia) was 2.3 µM. For the same compound, the TGI (RPMI-8226 leukemia) was 6.84 µM, the GI50 (SNB-19 CNS) was 4.26 µM and the TGI (SNB-19 CNS) was 16 µM. It also gave a GI50 (SN12C renal) of 1.86 µM, a TGI (SN12C renal) of 4.15 µM and a GI50 (CAKI-1 renal) of 4.24 µM. For the same compound, the TGI (CAKI-1 renal) was 16.2 µM, the GI50 (OVCAR-3 ovarian) was 2.09 µM and the TGI (OVCAR-3 ovarian) was 4.73 µM. The GI50 (MDA-MB-435) was 7.18 µM, the TGI (MDA-MB-435) was 20.1 µM and the GI50 (COLO 205 colon) was 2.21 µM. It also gave a TGI (COLO 205 colon) of 4.49 µM, a GI50 (SK-OV-3 ovarian) of 12.9 µM and a TGI (SK-OV-3 ovarian) of 26 µM. It also gave a GI50 (BT-549 breast) of 4.56 µM, a TGI (BT-549 breast) of 16.8 µM and a GI50 (HT29 colon) of 2.27 µM. The TGI (HT29 colon) was 4.9 µM, the GI50 (SF-268 CNS) was 3.66 µM and the TGI (SF-268 CNS) was 14.6 µM. For the same compound, the GI50 (M14 melanoma) was 6.83 µM and the TGI (M14 melanoma) was 21.3 µM.
